In patent US12186312B2, “Sleep improving agent” (Amino Up Co., Ltd., priority 2016, dated 2025):

Key:
[1] = tested on: HSP70 mRNA expression in human promyelocytic leukemia cells (HL-60 cells); assay: Evaluation of HSP70 mRNA expression-inducing activity in HL-60 cells; format: cell-based; settings: for concentration at which HSP70 mRNA expression inducing ability was increased up to 150% relative to the control: 4 hours at 37° C., corrected with beta 2 microglobulin gene; for HSP70 mRNA expression as compared with the control: 4 hours, FIGS. 1-3, percentages for the control
Procedure: The HSP70 expression-inducing activity by Compounds 1-3 was evaluated by measuring a HSP70 mRNA expression level.
Human promyelocytic leukemia cells (HL-60 cells) was suspended in RPMI 1640 medium supplemented with 10% fetal bovine serum, and was transferred into a 1.5 mL tube (45,000 cells/0.9 mL). To the tube was added 0.1 mL of each sample that had been prepared in a 1% DMSO solution and the tube was allowed to stand at 37° C. for 4 hours. To a control was added 0.1 mL of 1% DMSO solution. After cultured for 4 hours, the cells was centrifuged by a small refrigerated centrifuge (1,000 g×5 minutes) to precipitate the HL-60 cells. After removal of the supernatant, the cells were lysed in 0.25 mL Trizol (manufactured by Thermo Fisher Scientific) and then total RNA was extracted according to the protocol. The RNA was dissolved in RNase-free water, and the concentration of the RNA (wave length 260 nm) was measured by using a microvolume spectrophotometer NanoDrop 2000/2000c (manufactured by Thermo Fisher Scientific). The RNA solution was diluted with RNase-free water so as to have a concentration of 50 ng/mL, and then cDNA was synthesized by using ReverTra Ace® qPCR RT Kit (manufactured by TOYOBO). The reaction liquid (10 μl) after the reverse transcription was diluted with RNase-free water so as to be 100 μL, and then used as a template for PCR. Beta 2 microglobulin gene was used as an internal control gene for correction of the HSP70 gene expression. The primer sequences of genes used for the PCR reaction are as follows.
The expression was analyzed by using CFX Connect Real-Time PCR Detection System (manufactured by Bio-rad). 10 μL of the PCR reaction liquid was incubated at 95° C. for 3 minutes (initial denaturation), followed by repetition of 55 cycles comprising denaturation at 95° C. for 10 seconds, and annealing and extension at 57.8° C. for 30 seconds. Finally, the melting curve was measured every 0.2° C. in the range from 65° C. to 95° C. Expression levels of HSP70 gene and internal standard gene were analyzed using Bio-Rad CFX Manager 3.1.

male Wistar rats = assay: Light period activity level after 8-hour phase advance (model of mild sleep disorder), dietary administration; format: in vivo, rat; settings: for activity level of Day 1 and Day 2 during the light period compared with the Control group: Dunnett test with mixed model for repeated measures; for activity level on Day 1, light period (12 hours) after the phase advance compared with the Control group: Dunnett test
Description: Firstly, 7-week old male Wistar rats were implanted intraperitoneally with a small activity meter (NanoTag®, Kissei Comtech Co., Ltd.). Subsequently, after a week of recovery period, the rats were divided into four groups (Control group, Compound A-1 group, Compound A-2 group, and Compound A-3 group; n=17 each) shown in Table 1 by stratified randomization assignment using body weight as an index, and test diets were dietary administered to them. At the 15th day from the start of dietary administration, the light/dark cycle was advanced by 8 hours, and after that, dietary administration of test diets was continued for 2 weeks. The light/dark cycle of the breeding environment excluding the phase advance date was set to 12 hours cycle, and the illuminance of the light period was set to be approximately 200 1× (185-230 1×). In this model of mild sleep disorder with the phase advance, the influence of test feed administration on the light period activity level after the phase advance was examined.
The test was carried out by a two-sided test, the significance level of the test was set to 5%, and the trend difference was 10% on both sides. For the analysis, SAS software release 9.3 (manufactured by SAS Institute Japan Ltd.) was used.

| SMILES | concentration at which HSP70 mRNA expression inducing ability was increased up to 150% relative to the control [1] [mg/mL] | HSP70 mRNA expression as compared with the control [1] | activity level of Day 1 and Day 2 during the light period compared with the Control group (male Wistar rats; Compound A-2 group: MF containing 0.005% of Compound A (6.25 mg/kg BW/day), P=0.0481) | activity level on Day 1, light period (12 hours) after the phase advance compared with the Control group (male Wistar rats; Compound A-2 group: MF containing 0.005% of Compound A (6.25 mg/kg BW/day), P=0.016) | activity level of Day 1 and Day 2 during the light period compared with the Control group (male Wistar rats; Compound A-3 group: MF containing 0.05% of Compound A (62.46 mg/kg BW/day), P=0.0978) | activity level on Day 1, light period (12 hours) after the phase advance compared with the Control group (male Wistar rats; Compound A-3 group: MF containing 0.05% of Compound A (62.46 mg/kg BW/day), P=0.0536) |
| --- | --- | --- | --- | --- | --- | --- |
| O=C1N[C@@H](Cc2ccccc2)C(=O)N2CCC[C@@H]12 [Compound 2, (3S,8aS)-3-benzylhexahydropyrrolo[1,2-a]pyrazine-1,4-dione] | 0.045 | enhanced mRNA expression of HSP70 gene | – | – | – | – |
| O=C1N[C@@H](Cc2ccc(O)cc2)C(=O)N2CCC[C@@H]12 [Compound 3, (3S,8aS)-3-(4-hydroxybenzyl)hexahydropyrrolo[1,2-a]pyrazine-1,4-dione] | 0.101 | enhanced mRNA expression of HSP70 gene | – | – | – | – |
| CC(C)C[C@@H]1NC(=O)[C@@H]2CCCN2C1=O [Compound 1, (3S,8aS)-3-isobutylhexahydropyrrolo[1,2-a]pyrazine-1,4-dione] | 0.083 | enhanced mRNA expression of HSP70 gene | significantly inhibited the activity level | significantly suppressed the activity level | tendency to suppress the activity level | tended to suppress the activity level |
